According to patent US12552792B2, “Solid forms of an FGFR inhibitor and processes for preparing the same” (Incyte Corporation, priority 2018, dated 2026):
“And” between values parts separate entries of the source, which are not always exact repeats. Identical values can stand only once.

Legend:
[1] = test system: patients with myeloid/lymphoid neoplasms with FGFR1 rearrangement; experiment: Phase 2 clinical study in myeloid/lymphoid neoplasms with FGFR1 rearrangement; format: in vivo, human; settings: for evaluable patients who achieved clinical response: preliminary
Text: All potential subjects must have documentation of an 8p11 translocation known to activate FGFR1 through the site's own cytogenetics laboratory. Once documentation has been provided, the subject undergoes screening to meet the rest of the inclusion/exclusion criteria.
One cycle is defined as 21 days of treatment.
The study population is subjects with myeloid/lymphoid neoplasms with FGFR1 rearrangement. […] In addition, only subjects who are not candidates for stem cell transplantation, or have relapsed after stem cell transplantation and […] lymphocyte infusion and who have progressed and are not candidates for other disease-modifying therapies are eligible for the study.
Additional key exclusion criteria include current evidence of clinically significant corneal disorder/keratopathy (including but not limited to bullous/band keratopathy, corneal abrasion, inflammation/ulceration, and keratoconjunctivitis, etc) or retinal disorder (including but not limited to macular/retinal degeneration, diabetic retinopathy, retinal detachment, etc) as confirmed by ophthalmologic examination.
Study visits may include sample collection for chemistry, hematology, coagulation, lipid panel, endocrine monitoring, and urinalysis testing. […] A sample of bone marrow aspirate or peripheral blood is sent to the central laboratory for confirmation of FGFR1 rearrangement as well as a central pathology laboratory for analysis. In addition, sites provide slides and/or digitized images of bone marrow aspirate at baseline and at the time of achieving response and send them to a central pathology group for review.
Once the subject's eligibility is confirmed through the site's laboratory, screening may begin. […] Safety follow-up is 30 days (+5 days) after the last dose of the study drug. In addition, subjects are followed for overall survival after stopping treatment with study drug. Study participation is expected to average approximately 6 months per individual subject.

[2] = test system: patients with advanced/metastatic or surgically unresectable cholangiocarcinoma; experiment: Phase 2 clinical study in advanced/metastatic or surgically unresectable cholangiocarcinoma; settings: for median PFS; Median time to events (95% Cl), months: Kaplan-Meier
Text: The study also considers exposure-response analyses for key efficacy and safety parameters.
The study enrolls approximately 100 subjects into Cohort A (FGFR2 translocations), 20 subjects into Cohort B (other FGF/FGFR alterations), and 20 subjects into Cohort C (US only, negative for FGF/FGFR alterations). […] Treatment will start on Day 1. Subjects undergo regular safety assessments during treatment as well as regular efficacy assessments. Subjects are allowed to continue administration in 21-day cycles until documented disease progression or unacceptable toxicity is reported.
One cycle is defined as 21 days.
The study subjects are those with advanced/metastatic or surgically unresectable cholangiocarcinoma with FGFR2 translocations, with other FGF/FGFR alterations, or who are negative for any FGF/FGFR alterations, who failed at least 1 previous treatment.
The key inclusion criteria include men and women, aged 18 or older. The subjects have histologically or cytologically confirmed advanced/metastatic or surgically unresectable cholangiocarcinoma. Subjects in Cohort A have FGFR2 translocations with a documented fusion partner in central laboratory report. Subjects in Cohort B have other FGF/FGFR alterations. Subjects in Cohort C (US only) are negative for FGF/FGFR alterations. Additional key inclusion criteria include radiographically measureable disease per RECIST v. 1.1; documentation of FGF/FGFR gene alteration status; documented disease progression after at least 1 line of prior systemic therapy; ECOG performance status of 0 to 2; a life expectancy greater than or equal to 12 weeks; adequate hepatic function; adequate renal function; serum phosphate≤institutional ULN; and serum calcium within institutional normal range.
The study schedule and procedures include regularly scheduled study visits at the clinical site as part of a 21-day cycle. Study visits begin with a prescreening to obtain FGF/FGFR status if unknown (results within approximately 2 years of screening are valid). Screening takes place on day −28 through day −1. Cycle 1 occurs on days 1, 8, and 15. Cycles 2+ begin on day 1. A safety follow up occurs 30 days (+5 days) from date of last dose. Disease status follow-up occurs every 9 weeks for subjects who discontinue for reasons other than disease progression. There is a survival follow-up every 12 weeks after discontinuation. […] Study visits include sample collection for hematology, chemistry, coagulation, endocrine monitoring, lipids, and urinalysis testing. Additionally, HIV screening (required for subjects outside the US) and hepatitis screening (serology) is done at screening. Pregnancy testing is also be done at screening, Day 1 of every cycle before dose administration, and at end-of-treatment. FGF/FGFR status may be determined locally.
Tumor tissue is evaluated through the central laboratory for confirmation of FGF/FGFR alteration status. Blood samples for population pharmacokinetic analysis and whole blood pharmacodynamics and correlative studies are collected at various time points throughout the study and analyzed at the central laboratory or designee.
Adverse event assessments, vital signs, electrocardiograms, physical examination, ECOG performance status comprehensive eye examination, and tumor and disease response assessments are performed by the investigative site. An objective assessment of disease status is performed at screening. Subsequently, disease status including RECIST radiological response assessment is assessed every 2 cycles for the first 4 cycles and every 3 cycles thereafter. A central radiology group provides centralized reading on all assessments.
The primary endpoint of the study is to determine the objective response rate (ORR) in subjects with FGFR2 translocations based on the central genomics laboratory results.

[3] = Cohort A (FGFR2 translocations), preliminary
[4] = Cohort A (n = 47), independent reviewer
[5] = Cohort B (n = 22), independent reviewer
[6] = Cohort C (n = 18), independent reviewer
[7] = all patients, 13.5 mg QD 2-weeks-on/1-week-off

## CCN1C(=O)N(c2c(F)c(OC)cc(OC)c2F)Cc2cnc3[nH]c(CN4CCOCC4)cc3c21 [Compound 1, 3-(2,6-difluoro-3,5-dimethoxyphenyl)-1-ethyl-8-(morpholin-4-ylmethyl)-1,3,4,7-tetrahydro-2H-pyrrolo[3′,2′:5,6]pyrido[4,3-d]pyrimidin-2-one]
[1]; 13 evaluable patients, 13.5 mg QD
  evaluable patients who achieved clinical response: 85%
[1]; 14 patients treated
  Treatment discontinued, reason: Adverse Event, number of patients: 2
[1]; 14 patients, 13.5 mg QD
  TRAE alopecia, %: 29%
  TRAE diarrhea, %: 36%
  TRAE dyspepsia, %: 14%
  TRAE fatigue, %: 14%
  TRAE hyperphosphatemia, %: 64%
  TRAE increased blood alkaline phosphatase, %: 21%
  TRAE stomatitis, %: 14%
  patients with grade 3 TRAEs: Three
  tolerability (in words): generally well tolerated
[1]; 14 patients, unrelated to treatment
  patients with fatal TEAEs: Two
[1]; of 13 evaluable patients, 13.5 mg QD
  evaluable patients who achieved clinical response: 11 patients
[1]; person, myeloproliferation and TLL, ZMYM2-FGFR1 fusion, 13.5 mg daily 2 weeks on, 1 week off, at 4 months (beginning of cycle 6)
  response of single patient (PET scan, cytogenetics): complete cytogenetic remission and complete lymph node remission
[2]; All Cohorts (N = 89)
  Alopecia, TEAEs, All Grades, % of patients: 41.6%
  Alopecia, TEAEs, Grade 3/4, % of patients: 0.0%
  Alopecia, TRAEs, All Grades, % of patients: 37.1%
  Alopecia, TRAEs, Grade 3/4, % of patients: 0.0%
  Arthralgia, TEAEs, All Grades, % of patients: 23.6%
  Arthralgia, TEAEs, Grade 3/4, % of patients: 6.7%
  Arthralgia, TRAEs, All Grades, % of patients: 11.2%
  Arthralgia, TRAEs, Grade 3/4, % of patients: 4.5%
  Constipation, TEAEs, All Grades, % of patients: 30.3%
  Constipation, TEAEs, Grade 3/4, % of patients: 0.0%
  Constipation, TRAEs, All Grades, % of patients: 11.2%
  Constipation, TRAEs, Grade 3/4, % of patients: 0.0%
  Decreased appetite, TEAEs, All Grades, % of patients: 37.1%
  Decreased appetite, TEAEs, Grade 3/4, % of patients: 2.2%
  Decreased appetite, TRAEs, All Grades, % of patients: 24.7%
  Decreased appetite, TRAEs, Grade 3/4, % of patients: 1.1%
  Diarrhea, TEAEs, All Grades, % of patients: 39.3%
  Diarrhea, TEAEs, Grade 3/4, % of patients: 2.2%
  Diarrhea, TRAEs, All Grades, % of patients: 29.2%
  Diarrhea, TRAEs, Grade 3/4, % of patients: 2.2%
  Dry eye, TEAEs, All Grades, % of patients: 20.2%
  Dry eye, TEAEs, Grade 3/4, % of patients: 1.1%
  Dry eye, TRAEs, All Grades, % of patients: 13.5%
  Dry eye, TRAEs, Grade 3/4, % of patients: 1.1%
  Dry mouth, TEAEs, All Grades, % of patients: 29.2%
  Dry mouth, TEAEs, Grade 3/4, % of patients: 0.0%
  Dry mouth, TRAEs, All Grades, % of patients: 23.6%
  Dry mouth, TRAEs, Grade 3/4, % of patients: 0.0%
  Dysgeusia, TEAEs, All Grades, % of patients: 36.0%
  Dysgeusia, TEAEs, Grade 3/4, % of patients: 0.0%
  Dysgeusia, TRAEs, All Grades, % of patients: 34.8%
  Dysgeusia, TRAEs, Grade 3/4, % of patients: 0.0%
  Edema peripheral, TEAEs, All Grades, % of patients: 22.5%
  Edema peripheral, TEAEs, Grade 3/4, % of patients: 1.1%
  Edema peripheral, TRAEs, All Grades, % of patients: 3.4%
  Edema peripheral, TRAEs, Grade 3/4, % of patients: 0.0%
  Fatigue, TEAEs, All Grades, % of patients: 36.0%
  Fatigue, TEAEs, Grade 3/4, % of patients: 4.5%
  Fatigue, TRAEs, All Grades, % of patients: 23.6%
  Fatigue, TRAEs, Grade 3/4, % of patients: 1.1%
  Hyperphosphatemia, TEAEs, All Grades, % of patients: 60.7%
  Hyperphosphatemia, TEAEs, Grade 3/4, % of patients: 0.0%
  Hyperphosphatemia, TRAEs, All Grades, % of patients: 55.1%
  Hyperphosphatemia, TRAEs, Grade 3/4, % of patients: 0.0%
  Hypophosphatemia, TEAEs, All Grades, % of patients: 25.8%
  Hypophosphatemia, TEAEs, Grade 3/4, % of patients: 13.5%
  Hypophosphatemia, TRAEs, All Grades, % of patients: 10.1%
  Hypophosphatemia, TRAEs, Grade 3/4, % of patients: 5.6%
  Nausea, TEAEs, All Grades, % of patients: 29.2%
  Nausea, TEAEs, Grade 3/4, % of patients: 0.0%
  Nausea, TRAEs, All Grades, % of patients: 15.7%
  Nausea, TRAEs, Grade 3/4, % of patients: 0.0%
  Stomatitis, TEAEs, All Grades, % of patients: 30.3%
  Stomatitis, TEAEs, Grade 3/4, % of patients: 3.4%
  Stomatitis, TRAEs, All Grades, % of patients: 27.0%
  Stomatitis, TRAEs, Grade 3/4, % of patients: 3.4%
[2]; Cohort A (FGFR2 translocations)
  Median OS: 15.8 months
[2]; Cohort A (FGFR2 translocations), 47 evaluable patients, independent reviewer
  median PFS; Median time to events (95% Cl), months: 9.2 months and 9.20 (6.44-NE) months
[2]; Cohort A (FGFR2 translocations), 47 patients followed >=8 months, 13.5 mg QD 2-weeks-on/1-week-off, independent reviewer, preliminary
  objective response rate (ORR): 40.4%
[2]; [3]
  Disease control rate (DCR): 85.1%
  median duration of response (DOR): has not been reached
  probability of maintaining response for greater than or equal to six months: 86.2%
[2]; [4]
  Best OR: CR, % of patients: (0.0) %
  Best OR: NE, % of patients: (4.3) %
  Best OR: PD, % of patients: (10.6) %
  Best OR: PR, % of patients: (40.4) %
  Best OR: SD, % of patients: (44.7) %
  DCR: 85.1%
  ORR: 40.4%
[2]; Cohort A, 47 evaluable patients
  PFS Events, %: 46.8%
[2]; [5]
  Best OR: CR, % of patients: (0.0) %
  Best OR: NE, % of patients: (22.7) %
  Best OR: PD, % of patients: (31.8) %
  Best OR: PR, % of patients: (0.0) %
  Best OR: SD, % of patients: (45.5) %
  DCR: 45.5%
  ORR: 0%
[2]; Cohort B (other FGF/FGFR alterations)
  Median OS: 6.8 months
[2]; Cohort B (other FGF/FGFR alterations), 22 evaluable patients, independent reviewer
  median PFS; Median time to events (95% Cl), months: 2.1 months and 2.10 (1.18-6.80) months
[2]; Cohort B (other FGF/FGFR alterations), preliminary
  Disease control rate (DCR): 45.5%
[2]; Cohort B, 22 evaluable patients
  PFS Events, %: 77.3%
[2]; [6]
  Best OR: CR, % of patients: (0.0) %
  Best OR: NE, % of patients: (22.2) %
  Best OR: PD, % of patients: (55.6) %
  Best OR: PR, % of patients: (0.0) %
  Best OR: SD, % of patients: (22.2) %
  DCR: 22.2%
  ORR: 0%
[2]; Cohort C (negative for FGF/FGFR alterations)
  Median OS: 4.0 months
[2]; Cohort C (negative for FGF/FGFR alterations), 18 evaluable patients, independent reviewer
  median PFS; Median time to events (95% Cl), months: 1.7 months and 1.68 (1.38-1.84) months
[2]; Cohort C (negative for FGF/FGFR alterations), preliminary
  Disease control rate (DCR): 22.2%
[2]; Cohort C, 18 evaluable patients
  PFS Events, %: 88.9%
[2]; all cohorts, none related to study treatment
  patients with TEAEs with a fatal outcome: Five
[2]; [7]
  Grade 3 or greater TEAE abdominal pain: 6.7%
  Grade 3 or greater TEAE arthralgia: 6.7%
  Grade 3 or greater TEAE hyponatremia: 7.9%
  Grade 3 or greater TEAE hypophosphatemia: 13.5%
  TEAE alopecia: 41.6%
  TEAE decreased appetite: 37.1%
  TEAE diarrhea: 39.3%
  TEAE dysgeusia: 36.0%
  TEAE fatigue: 36.0%
  TEAE hyperphosphatemia: 60.7%
[2]; interim analysis, patients with at least 8 months follow up
  tolerability (in words): generally well tolerated
